Legend:
CC3+ apoptotic cells = assay: CC3 IHC in Capan-1 xenograft model (tumor, colon, skin); type: in vivo, mouse
Experimental: Studies were terminated early if tumor burden reached humane endpoint. Body weights were collected twice a week during the study. Means±s.e.m were plotted in the waterfall plots. For the single-dose pharmacokinetic/pharmacodynamic (PK/PD) study, mice were randomized and assigned into groups (n=3-6/dose/timepoint). […] Sakura, 4583) solution or snap-frozen in LN2 for further analysis. Whole blood was transferred into K2EDTA Microtainer tubes (BD, 365974), incubated for 5 minutes and snap-frozen in LN2. To stain tissues collected from the Capan-1 xenograft model, a similar protocol was used with the following changes. Sections were stained using a Leica BOND automated staining system and primary antibodies were detected with the Leica BOND Polymer detection kit (3-P—PV6119). Stained slides were scanned and digitized with a 3DHistotech Pannoramic whole slide scanner at 20× magnification. Image analysis was performed using HALO software from Indica Labs.

[1] = tested on: RAS/MAPK pathway (pERK) in murine PDAC cell lines; assay: Western blot of pERK, murine PDAC cell lines; type: cell-based; settings: 1-100 nM, 2 hours
Experimental: Cells were seeded at 7.5×10^5-4×10^6 cells per well in 6-well plates or 100 mm dishes in growth medium. After overnight incubation, indicated compound (RMC-7977, IAG933 or DMSO (0.1% v/v)) were added and incubated for the indicated time points. Cells were washed twice with ice-cold PBS and lysed with NP-40 lysis buffer (Thermo Fisher Scientific, J60766), MSD Tris Lysis Buffer (MSD, R60TX-2), RIPA buffer (50 mM TRIS-HCl, pH 7.5, 150 mM NaCl, 1% NP-40, 0.5% sodium deoxycholate, 0.1% SDS) or a lysis buffer containing 1% Triton X-100, 20 mM Tris-HCl, 150 mM NaCl, and 1 mM EDTA. All lysis buffers were supplemented with protease and phosphatase inhibitors. Lysates were scraped and collected before centrifugation at 21,000×g for 10 minutes at 4° C. The protein-containing supernatants were quantified by BCA assay (Pierce, 23225) and equal quantities of protein were denatured with LDS and reducing agent at 95° C. Samples were resolved on 12% or 4-12% Bis-Tris polyacrylamide gels, then transferred to a nitrocellulose or PVDF membrane using the iBlot 2.0 system or wet transfer. Membranes were blocked in Intercept TBS buffer (LiCor, 927-60001) or 3-5% milk before probing with primary antibodies overnight at 4° C. Secondary antibodies were added as appropriate, and the membranes were imaged on a LiCor Odyssey imager. […]

[2] = Pharmacokinetics in Capan-1 xenograft model (tumor and blood); type: in vivo; settings: BALB/c (immune-deficient), mouse, tumor vs whole blood, oral; Capan-1 xenograft tumors; read-out: overall exposure (AUC0-48) in tumors compared to blood
Experimental: Studies were terminated early if tumor burden reached humane endpoint. Body weights were collected twice a week during the study. Means±s.e.m were plotted in the waterfall plots. For the single-dose pharmacokinetic/pharmacodynamic (PK/PD) study, mice were randomized and assigned into groups (n=3-6/dose/timepoint). […] Sakura, 4583) solution or snap-frozen in LN2 for further analysis. Whole blood was transferred into K2EDTA Microtainer tubes (BD, 365974), incubated for 5 minutes and snap-frozen in LN2. Whole blood, tumor, colon and skin tissue concentrations of RMC-7977 were determined using liquid chromatography-tandem mass spectrometry (LC-MS/MS) methods. […] After thorough mixing and centrifugation, the supernatant was directly analyzed on a Sciex 6500+ triple quadrupole mass spectrometer equipped with an ACQUITY or Shimadzu UPLC system. An ACQUITY UPLC BEH C18 or C4 […] (2.1×50 mm) column was used with gradient elution for compound separation. RMC-7977 and IS (verapamil or terfenadine) were detected by positive electrospray ionization using multiple reaction monitoring (RMC-7977: m/z 865.4/706.4 or m/z 865.3/833.5; verapamil: m/z 455.2/164.9; terfenadine: m/z 472.3/436.4). […] BA analysis on blood and tissue samples from xenograft models was run at Wuxi AppTec. BA analysis on blood and tissue samples from allograft models and GEMM was run at Revolution Medicines.

wild type RAS = settings: reference 14; cited from earlier work
human PDAC explants = assay: Ex vivo human PDAC explants, IHC for pERK and CC3; type: cell-based
Experimental: Explant culture sponges and optimized culture media were prepared as previously described in Hasselluhn and Decker-Farrell et al.^54. Human tissue samples were obtained from de-identified patients undergoing resection surgeries, primarily pancreaticoduodenectomy (Whipple) or distal pancreatectomy, at New York-Presbyterian/Columbia University Irving Medical Center. Upon receipt of a resected human PDAC fragment (n=4), each tissue sample was cut into […] slices using a Compresstome. Any tumor tissue remaining after sectioning was fixed in 4% paraformaldehyde (Santa Cruz Biotechnology, sc-281692) for 2 hours, at 4° C. as the Day 0 control. […] Each well of a 24 well plate contained one explant slice placed between bottom sponge (1 cm^3) and a top sponge (2-3 mm thick). After 24 hours culture, explants were collected and fixed in 4% PFA for 2 hours. Fixed tissue was then transferred to 70% ethanol and paraffin embedded for long-term storage and further analysis. All tissues were fixed for up to 24 hours using 10% neutral buffered formalin and then moved to 70% ethanol for long term storage. All stainings were performed on 4-μm tissue sections. Sections were deparaffinized using a Leica XL ST5010 autostainer, after which slides were subjected to heat-activated epitope retrieval. […] Slides were further blocked in serum for 1 hour, and primary antibodies were added for overnight incubation at 4° C. […] Following incubation, ImmPACT DAB peroxidase (Vector Laboratories, SK-4100) was used to develop the stain and hematoxylin was used as nuclear counterstain. Stained slides were imaged at 40× magnification. Quantitative analyses of IHC images were performed using ImageJ.

[3] = explants treated for 24 hours, 10-100 nM

CCn1c(-c2cc(N3CCN(C4CC4)CC3)cnc2[C@H](C)OC)c2c3cc(ccc31)-c1csc(n1)C[C@H](NC(=O)[C@H]1[C@@H]3COC[C@@H]31)C(=O)N1CCC[C@H](N1)C(=O)OCC(C)(C)C2 [RMC-7977]
time of peak of CC3+ apoptotic cells post-dose (CC3+ apoptotic cells; Capan-1 CDX tumors): 8 h
CC3+ apoptotic cells in tumors relative to vehicle (CC3+ apoptotic cells; Capan-1 CDX tumors, single dose): notable increase
apoptotic cells in colon or skin (CC3+ apoptotic cells; tumor-bearing animals, any timepoint): few apoptotic cells
phosphorylation of ERK1/2 (pERK) [1]: reduced phosphorylation
Kp [2]: ~3
affinity for wild type RAS compared to mutant variants (wild type RAS): somewhat reduced affinity
apoptosis marker cleaved caspase 3 (CC3) (IHC) (human PDAC explants; [3]): increase
pERK expression (IHC) (human PDAC explants; [3]): concentration-dependent decrease
concentration of maximal changes in pERK and CC3 (human PDAC explants; highest concentration tested): 100 nM
response of the KRASWT explant model (human PDAC explants; one of the four explant models, KRASWT): sensitive
